Measured values published in patent publication US12171755B2, “PAPD5 inhibitors and methods of use thereof” (Children's Medical Center Corporation, priority 2017, dated 2024).

Target: T1, PAPD5 (Homo sapiens, UniProt Q8NDF8)
T1 construct: made in house
Assay: High-throughput luminescence (KinaseGlo) RNA polyadenylation assay, ATP utilization by recombinant PAPD5
Format: biochemical
Settings: for Fold-change determined at compound concentration 33 μM / Fold-change determined at compound concentration 100 μM / Fold-change determined at compound concentration 10 μM: Table 4 (entries of Table 5), ratio of luminescence with inhibitor to DMSO; for Fold-change determined at compound concentration 33 μM: 33 μM compound; for Fold-change determined at compound concentration 100 μM: higher = higher inhibition; for Fold-change determined at compound concentration 10 μM: 10 μM compound
Summary of the method: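 Values are ratios of inhibitor to DMSO luminescence, so larger numbers mean less ATP consumed. Screening was run in duplicate with a 2 h room-temperature reaction of recombinant PAPD5, ATP and oligo RNA substrate plus compound. Residual ATP was detected after a 10 min KinaseGlo step.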

T1 sequence (Q8NDF8 68-698 isoform Q8NDF8-5): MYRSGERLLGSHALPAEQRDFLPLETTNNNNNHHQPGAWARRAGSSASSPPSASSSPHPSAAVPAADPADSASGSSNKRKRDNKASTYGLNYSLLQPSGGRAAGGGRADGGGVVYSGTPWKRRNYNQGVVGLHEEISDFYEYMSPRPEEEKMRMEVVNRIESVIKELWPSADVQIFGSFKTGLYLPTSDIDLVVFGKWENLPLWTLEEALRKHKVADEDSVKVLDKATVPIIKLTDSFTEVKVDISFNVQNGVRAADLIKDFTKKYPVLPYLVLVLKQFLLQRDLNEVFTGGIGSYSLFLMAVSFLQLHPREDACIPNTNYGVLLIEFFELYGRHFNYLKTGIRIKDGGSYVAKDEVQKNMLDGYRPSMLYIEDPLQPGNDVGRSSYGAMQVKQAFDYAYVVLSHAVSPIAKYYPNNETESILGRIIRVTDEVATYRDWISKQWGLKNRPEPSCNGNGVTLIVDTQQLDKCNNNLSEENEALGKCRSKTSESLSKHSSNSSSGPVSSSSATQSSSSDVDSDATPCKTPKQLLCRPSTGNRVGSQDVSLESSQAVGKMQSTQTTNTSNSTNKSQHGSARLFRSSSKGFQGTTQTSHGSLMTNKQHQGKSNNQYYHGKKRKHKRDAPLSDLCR

Compound | Fold-change determined at compound concentration 33 μM | Fold-change determined at compound concentration 100 μM (100 μM compound) | Fold-change determined at compound concentration 10 μM | fold change at 100 μM concentration in the assay (100 μM compound)
COc1ccc(C(=O)N2CCc3ccc(CNS(C)(=O)=O)cc32)cc1 [Entry 221, N-[[1-(4-methoxybenzoyl)-2,3-dihydroindol-6-yl]methyl]methanesulfonamide] | 1.084 | 1.585 |  | 
COc1cc2[nH]c3c(SCC(N)=O)ncnc3c2cc1OC [Entry 224, 2-[(7,8-dimethoxy-5H-pyrimido[5,4-b]indol-4-yl)sulfanyl]acetamide] | 1.193 | 1.37 |  | 
COc1cccc(-c2nnc3n(CCc4ccccc4)c(=O)c4ccccc4n23)c1O [Entry 225, (1Z)-1-(5-methoxy-6-oxocyclohexa-2,4-dien-1-ylidene)-4-(2-phenylethyl)-2H-[1,2,4]triazolo[4,3-a]quinazolin-5-one] | 1.173 | 1.219 |  | 
Cn1[nH]c(-c2cccnc2)c2nc(-c3ccccc3OC(F)F)nc1-2 [Entry 227, 5-[2-(difluoromethoxy)phenyl]-1-methyl-3-pyridin-3-yl-2H-imidazo[4,5-c]pyrazole] | 1.097 | 1.425 |  | 
CCOC(=O)c1c(C)nc2n(C)c3ccccc3n12 [Entry 228, ethyl 2,9-dimethyl-9H-benzo[d]imidazo[1,2-a]imidazole-3-carboxylate] | 1.146 | 1.3 |  | 
O=C(O)CSc1nnc2n(-c3ccccc3)c3ccccc3n12 [Entry 229, [(9-Phenyl-9H-[1,2,4]triazolo[4,3-a]benzimidazol-3-yl)thio]acetic acid] | 1.249 | 1.704 |  | 
CC1CCN(C(=O)CSc2nc3c(c(=O)n2Cc2ccccc2)SCC3)CC1 [Entry 232, 3-benzyl-2-((2-(4-methylpiperidin-1-yl)-2-oxoethyl)thio)-6,7-dihydrothieno[3,2-d]pyrimidin-4(3H)-one] | 1.198 | 1.342 |  | 
N#Cc1c[nH]n2c(NC3CCCCC3)c(-c3ccccc3F)nc12 [Entry 235, 3-(cyclohexylamino)-2-(2-fluorophenyl)-5H-imidazo[1,2-b]pyrazole-7-carbonitrile] | 1.177 | 1.452 |  | 
COc1ccc(Cc2nccc3cc(OC)c(OC)cc23)cc1OC [Entry 237, 1-(3,4-dimethoxybenzyl)-6,7-dimethoxyisoquinoline] | 1.166 | 1.362 |  | 
Cc1ccc(-n2nc3c(=O)n(CCCC(=O)NCc4ccccc4C)nc(C)c3c2C)cc1 [Entry 240, 4-[3,4-dimethyl-2-(4-methylphenyl)-7-oxopyrazolo[3,4-d]pyridazin-6-yl]-N-[(2-methylphenyl)methyl]butanamide] | 1.091 | 1.206 |  | 
NC(=O)CN1c2ccc(F)cc2-c2ccccc2S1(=O)=O [Entry 241, 2-(9-fluoro-5,5-dioxido-6H-dibenzo[c,e][1,2]thiazin-6-yl)acetamide] | 1.099 | 1.249 |  | 
O=C(O)c1ccc(N2C(=O)c3[nH]nc(-c4ccccc4)c3C2c2cccc(O)c2)cc1 (centres unmarked) [Entry 242, 4-[4-(3-hydroxyphenyl)-6-oxo-3-phenyl-1,4-dihydropyrrolo[3,4-c]pyrazol-5-yl]benzoic acid] | 1.068 | 1.283 |  | 
N#C/C(=C\c1ccc(-c2ccc(C(=O)O)cc2)o1)C(=O)Nc1ccccc1C(=O)O [Entry 244, 2-[[(E)-3-[5-(4-carboxyphenyl)furan-2-yl]-2-cyanoprop-2-enoyl]amino]benzoic acid] | 1.737 | 2.572 | 1.32 | 
N#C/C(=C\c1ccc(-c2ccc(Cl)c(C(=O)O)c2)o1)c1nc2ccccc2[nH]1 [Entry 245, 5-[5-[(E)-2-(1H-benzimidazol-2-yl)-2-cyanoethenyl]furan-2-yl]-2-chlorobenzoic acid] | 1.236 | 1.638 |  | 

Other lines, results leading:

Fold-change determined at compound concentration 33 μM | Fold-change determined at compound concentration 100 μM (100 μM compound) | Fold-change determined at compound concentration 10 μM | fold change at 100 μM concentration in the assay (100 μM compound) | Compound
1.05 | 1.205 |  |  | O=C(O)Cc1c2ccccc2n2c1[nH]c(=O)c1ccccc12 [Entry 222, 2-(5-oxo-6H-indolo[1,2-a]quinazolin-7-yl)acetic acid]
1.207 | 1.254 |  |  | COc1cc(NS(=O)(=O)c2ccc3oc(=O)c4ncn(C)c4c3c2)cc(OC)c1 [Entry 223, N-(3,5-dimethoxyphenyl)-1-methyl-4-oxochromeno[3,4-d]imidazole-8-sulfonamide]
1.095 | 1.228 |  |  | Cc1cccc2c1-c1sc(C(=O)NCCCN3CCC(C)CC3)cc1CO2 [Entry 226, 9-methyl-N-[3-(4-methylpiperidin-1-yl)propyl]-4H-thieno[3,2-c]chromene-2-carboxamide]
1.053 | 1.527 |  |  | Cc1nc(-c2cnccn2)nc2c1CC(=O)N2CC1CCCO1 (centres unmarked) [Entry 230, 4-methyl-2-(2-pyrazinyl)-7-(tetrahydro-2-furanylmethyl)-5,7-dihydro-6H-pyrrolo[2,3-d]pyrimidin-6-one]
1.068 | 1.36 |  |  | CCn1c(=S)sc2c(=O)n3[nH]c(=O)c4ccccc4c3nc21 [Entry 231, 11-ethyl-10-thioxo-10,11-dihydro-6H-[1,3]thiazolo[4′,5′:4,5]pyrimido[2,1-a]phthalazine-5,8-dione]
1.256 | 1.859 |  |  | CC1Oc2ccc(C(=O)CSc3nc(-c4ccc(Cl)cc4)c(C#N)c(=O)[nH]3)cc2NC1=O (centres unmarked) [Entry 233, 4-(4-chlorophenyl)-2-{[2-(2-methyl-3-oxo-3,4-dihydro-2H-1,4-benzoxazin-6-yl)-2-oxoethyl]sulfanyl}-6-oxo-1,6-dihydro-5-pyrimidinecarbonitrile]
1.319 | 1.648 |  |  | CC(=O)Nc1ccc2nc3c(=O)[nH]c(=O)[nH]c3nc2c1 [Entry 234, N-(2,4-dioxo-1H-benzo[g]pteridin-8-yl)acetamide]
1.39 | 1.75 | 1.272 |  | CN1C(=O)C(c2c(-c3ccc4ccccc4c3)[nH]c3[nH]c(=O)[nH]c(=O)c23)c2ccccc21 (centres unmarked) [Entry 236, 5-(1-methyl-2-oxo-2,3-dihydro-1H-indol-3-yl)-6-(2-naphthyl)-1H-pyrrolo[2,3-d]pyrimidine-2,4(3H,7H)-dione]
1.119 | 1.238 |  |  | Cc1ccc(Cn2c(SCc3ccc(C(=O)O)cc3)nc3cccnc32)cc1 [Entry 238, 4-[[3-[(4-methylphenyl)methyl]imidazo[4,5-b]pyridin-2-yl]sulfanylmethyl]benzoic acid]
1.125 | 1.314 |  |  | CN1CCCc2cc(C(=O)NC3CCCCC3)sc21 [Entry 239, N~2~cyclohexyl-7-methyl-4,5,6,7-tetrahydrothieno[2,3-b]pyridine-2-carboxamide]
1.324 | 1.471 |  |  | O=c1cc(-c2cccc3c2Sc2ccccc2S3)oc(N2CCOCC2)c1 [Entry 243, 2-morpholin-4-yl-6-thianthren-1-ylpyran-4-one]
 |  |  | 3.1 | C=CCNC(=O)c1sc(=S)n2c1[nH]c(=O)c1cc3c(cc12)OCO3 [N-allyl-5-oxo-1-thioxo-4,5-dihydro[1,3]dioxolo[4,5-g][1,3]thiazolo[3,4-a]quinazoline-3-carboxamide]
